Experimental data taken from paper PMC6882468 (Journal of Enzyme Inhibition and Medicinal Chemistry, 2019).

Assays:
[1] = biological target: p38α MAPK (Homo sapiens, UniProt Q16539); experiment: p38α MAPK inhibition assay in vitro; format: biochemical; conditions: triplicate, read-out: IC50 p38p
Experimental: In brief, after mixing the enzyme reagent with the sample, a reaction mixture containing 200 µM biotin-peptide substrate and 600 µM ATP (+100 µCi/mL γ-^32 P-ATP) was added to initiate the reaction. […] Part of the reaction solution was transferred to the well of a streptavidin-coated flash plate, washed in PBS containing 0.01% Tween and sealed. The average value of counts per minute for each group and the IC50 value was calculated.
The average fluorescence values of each well were calculated and recorded as RFU (Relative Fluorescence Unit) blank control (RFU blank), RFU 100% enzyme activity control (RFU enzyme), RFU positive drug control (RFU drug) and RFU test compound (RFU compound). The inhibition rate is calculated according to the following formula. Inhibition rate (%)= (RFU (enzyme) – RFU (compound/drug) […]) /(RFU (enzyme) – RFU (blank)) * 100%
The IC50 value of the test compound was calculated by the concentration-inhibition reaction curve and the assays were performed in triplicate.

[2] = biological target: T1, COX-2 (Homo sapiens, UniProt P35354); experiment: COX-2 inhibition assay in vitro (COX Inhibitor Screening Kit, fluorometric); conditions: for SI (COX-1/COX-2): IC50 (COX-1)/IC50 (COX-2)
T1 sequence (P35354 18-604): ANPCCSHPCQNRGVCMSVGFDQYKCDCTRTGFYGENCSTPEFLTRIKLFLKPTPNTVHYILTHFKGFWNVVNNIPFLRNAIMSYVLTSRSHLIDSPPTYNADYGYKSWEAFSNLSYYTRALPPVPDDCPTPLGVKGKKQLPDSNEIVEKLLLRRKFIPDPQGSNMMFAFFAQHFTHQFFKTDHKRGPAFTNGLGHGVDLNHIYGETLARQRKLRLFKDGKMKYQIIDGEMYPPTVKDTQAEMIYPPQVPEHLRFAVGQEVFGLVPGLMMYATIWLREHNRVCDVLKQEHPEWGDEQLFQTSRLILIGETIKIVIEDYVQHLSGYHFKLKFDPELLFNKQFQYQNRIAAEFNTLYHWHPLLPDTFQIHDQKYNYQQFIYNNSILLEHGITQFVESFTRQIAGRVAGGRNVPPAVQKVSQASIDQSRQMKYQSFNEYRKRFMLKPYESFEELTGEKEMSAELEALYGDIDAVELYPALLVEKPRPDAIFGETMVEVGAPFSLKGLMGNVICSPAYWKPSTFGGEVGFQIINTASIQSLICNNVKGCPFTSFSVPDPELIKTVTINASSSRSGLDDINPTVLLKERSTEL

[3] = biological target: T2, COX-1 (Ovis aries, UniProt P05979); experiment: COX-1 inhibition assay in vitro (COX Inhibitor Screening Kit, fluorometric); format: biochemical
T2 construct: purchased BioVision, Inc
T2 sequence (P05979 25-600): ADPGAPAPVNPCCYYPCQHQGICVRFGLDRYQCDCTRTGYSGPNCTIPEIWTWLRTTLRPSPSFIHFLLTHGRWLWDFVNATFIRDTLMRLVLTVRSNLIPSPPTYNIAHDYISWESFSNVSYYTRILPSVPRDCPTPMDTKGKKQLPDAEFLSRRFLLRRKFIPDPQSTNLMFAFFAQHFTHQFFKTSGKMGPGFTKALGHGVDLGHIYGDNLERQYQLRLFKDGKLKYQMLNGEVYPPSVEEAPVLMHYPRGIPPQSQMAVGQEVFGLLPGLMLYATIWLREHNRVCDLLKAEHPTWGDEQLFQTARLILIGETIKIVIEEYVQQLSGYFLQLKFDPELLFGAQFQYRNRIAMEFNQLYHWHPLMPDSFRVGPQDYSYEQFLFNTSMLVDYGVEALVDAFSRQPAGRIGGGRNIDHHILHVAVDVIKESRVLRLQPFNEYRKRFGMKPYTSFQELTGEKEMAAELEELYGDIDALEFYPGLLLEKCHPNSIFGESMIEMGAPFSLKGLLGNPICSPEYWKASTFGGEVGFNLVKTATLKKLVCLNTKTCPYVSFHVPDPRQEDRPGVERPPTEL
Experimental: Simply, different concentrations of the test compound solution were added to the mixed solution containing COX-1/COX-2 enzyme (10 µL) and Assay Buffer (960 µL, 0.1 M Tris-HCl pH 8.0 containing 5 µM EDTA and 2 µM phenol). […] The IC50 values were calculated as described above.

[4] = tested on: DNFB-induced mouse model of allergic contact dermatitis; experiment: DNFB-induced mouse model of allergic contact dermatitis (ear swelling); format: in vivo, Male ICR mice; conditions: for Swelling degree / Inhibition (%) of ear swelling: mice, 5 mg/kg intragastric once a day for 6 days; for Swelling degree: ear slices weighed 24 h after DNFB challenge, Mean ± SD, n = 6; for Inhibition (%) of ear swelling: vs model group; for in vivo inhibitory activity, in words: p.o. 5 mg/kg, p < 0.01
Experimental: Male ICR mice (20 ± 2 g) were obtained from the Experimental Animal Centre of Anhui Medical University (Hefei, China). The mice reared in a pathogen-free setting (23 ± 2 °C, 55 ± 5% humidity) with free access to water and pelleted food throughout the experimental cycle. All experimental procedures performed in accordance with guide for the Care and Use of Laboratory Animals (National Research Council, 1996) and were approved by the Experimental Animal Ethics Committee of Anhui University of Chinese Medicine (Hefei, China). After 7 days acclimatisation, the mice were randomly divided into control group, ACD model group, dexamethasone positive control group and 20 compound groups, six in each group. The control group and the model group were given the same dose of the vehicle, the positive control group was given dexamethasone 0.5 mg/kg, and the test compound groups were given compound 5 mg/kg, all of which were given by intragastric administration and were administered once a day for 6 days. Except for the control group, the 50 µL of 1% DNFB (in acetone/olive oil 4:1) was administered to the stripped epidermis, and repeated the next day. After 6 days of drug treatment, 10 µL of 1% DNFB acetone olive oil solution was applied on both sides of the right ear to stimulate inflammation, and equivalent acetone olive oil solution was applied on the left ear for comparison. […] Calculation was carried out according to the following equations. Swelling degree (mg) = MR – ML Inhibitory rate of ear swelling (%)=((MR – ML) model – (MR – ML) treated)/(MR – ML) model ×100% MR=Average weight of the right ear slices;ML= Average weight of the left ear slices […] Dexamethasone (DEX) at a p.o. dose of 0.5 mg/kg was employed as the positive control. After the mice were sacrificed, the swelling degree and inhibition rate were calculated by weighing the same part of both ears.

[5] = tested on: p38α; design: method as in PMID 17664068; conditions: Figure 1; cited from earlier work

Chain of p38α MAPK (Q16539 whole entry): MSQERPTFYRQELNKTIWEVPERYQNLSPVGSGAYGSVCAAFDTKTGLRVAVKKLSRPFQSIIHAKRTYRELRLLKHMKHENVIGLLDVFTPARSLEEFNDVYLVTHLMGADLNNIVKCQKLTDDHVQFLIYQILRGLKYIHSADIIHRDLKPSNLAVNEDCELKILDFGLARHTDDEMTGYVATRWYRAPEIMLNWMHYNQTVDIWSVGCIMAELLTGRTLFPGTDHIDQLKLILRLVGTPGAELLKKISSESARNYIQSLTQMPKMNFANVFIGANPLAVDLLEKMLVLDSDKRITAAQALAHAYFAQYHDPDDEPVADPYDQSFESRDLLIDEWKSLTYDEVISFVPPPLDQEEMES

Compound | IC50 [1] | IC50 [2] | SI (COX-1/COX-2) [2] | IC50 [3] | Swelling degree [4] | Inhibition (%) of ear swelling [4] | in vivo inhibitory activity, in words [4] | IC50 [5]
CC(=O)c1ccccc1C(=O)N1CCN(Cc2ccc(F)cc2)CC1 [Compound 6j, 1–(2-(4–(4-Fluorobenzyl)piperazine-1-carbonyl)phenyl)ethan-1-one] | 8490 ± 570 nM | 22 ± 3 nM | 192.27 | 4230 ± 230 nM | 10.4 ± 3.1 mg | 36.6% | significant inhibitory activity | –
COc1cc2[nH]ccc2cc1C(=O)N1CCN(Cc2ccccc2)CC1 [Compound 2] | – | – | – | – | – | – | – | 950 nM
CC(=O)c1ccccc1C(=O)N1CCN(Cc2cccc([N+](=O)[O-])c2)CC1 [Compound 6f, 1–(2-(4–(3-Nitrobenzyl)piperazine-1-carbonyl)phenyl)ethan-1-one] | 3410 ± 220 nM | 842 ± 62 nM | 1.41 | 1190 ± 80 nM | 9.9 ± 2.9 mg | 39.6% | significant inhibitory activity | –
